Measurements from US7897641B2, “Composition for the prevention and/or treatment of the cytotoxic effects induced by the use of immunosuppressive agents” (Sigma-Tau Industrie Farmaceutiche Riunite S.p.A., priority 2000, dated 2011).
Read-outs that look alike come from different tables or passages of the source.

Key:
[1] = system: isolated, perfused rat kidneys; assay: Renal lipoperoxidation induced by cyclosporin-A (MDA + 4-HDA assay); details: for MDA + 4-HDA: renal cortex, kidneys perfused with cyclosporin-A, alone or with treatment, control 2.1 ± 0.91
Method: (§1) In these tests a group of rats were used whose kidneys were isolated, after bilateral nephrectomy, and perfused according to the technique described by Schure and Maack.
(§2) The kidneys thus isolated were perfused by means of a pulsating pump both with a solution containing cyclosporin A or tacrolimus and with a solution containing propionyl L-carnitine or glycine or the two components in combination.
(§3) Lipid peroxidation was measured on samples of renal cortex as described by Longoni (Longoni B., Int. J. Tissue React., 21.7.1997-Lowry O. H., J. Biol. Bioch., 193:265, 1951) and ATP concentrations were determined according to the method described by Sumpio (Sumpio B. E., Am. J. Physiol., 247, PT2, 1047, 1984).

[2] = system: isolated, perfused rat kidneys; assay: Reduction of renal ATP induced by cyclosporin-A; details: for ATP: kidneys perfused with cyclosporin-A, alone or with treatment, control 6.70 ± 0.51
Method: as §1, §2, §3

[3] = system: isolated, perfused rat kidneys; assay: Glomerular and tubular morphometric abnormalities induced by cyclosporin-A in perfused rat kidney; details: for Morphometric indices, tubular ID/ED / Morphometric indices, glomerular CD/BD: kidneys perfused with cyclosporin-A 2 mg/L, alone or with treatment 5 mg/L; for Morphometric indices, tubular ID/ED: control 0.36 ± 0.03; for Morphometric indices, glomerular CD/BD: control 0.93 ± 0.09
Text: as §1, §2
The parameters observed on the kidneys thus perfused were the capillary diameters (CD) and the Bowman's capsule diameters (BD) and equally the external and internal diameter (ID) and also the diameter at the level of the basal membrane (ED) of at least 20 proximal tubules.

[4] = system: rats intoxicated with CCL4; assay: Protection against liver damage in rats intoxicated with CCl4; type: in vivo, rat; details: treatment 300 mg/kg i.p. half an hour before CCl4; for Alanine aminotranferase activity (ALT): blood 24 h after CCl4 1 mL/kg of 20% solution, controls 12.5 ± 1.7; for Triglycerides: liver 24 h after CCl4, controls 6.5 ± 0.7
Method: CCl4 was administered at the dose of 1 mL/kg of a 20% solution in olive oil according to the technique described by Bernacchi (Bernacchi A. G., Brit. J. Exp. Pathol., 61:505, 1980).
Twenty-four hours after administration of CCl4, alanine aminotransferase was assayed as an indicator of enzymatic liver damage in blood from the animals thus treated, according to the colorimetric method described by Reitman (Reitman S., Am. J. Clin. Pathol., 28:56, […]), whereas from the livers taken from the same animals triglycerides were extracted with methanol and chloroform and assayed according to the method described by Kleir (Kleir, J. Biochem. Clin. Bohenescov., 9:243, 1999). The livers were then fixed with Carnon fixative and, after embedding in paraplast, were stained with haematoxylin and eosin.

Sprague Dawley rats [5] = assay: Toxicology tests, acute i.p./oral and prolonged oral administration
[6] = system: isolated, perfused rat kidneys; assay: Renal tubular damage evaluated by release of alanine aminopeptidase (AAP) and N-acetylglucosaminidase (NAG) in isolated, perfused rat kidneys; details: treatment 5 mg/L each, after 5 min perfusion
Text: (§4) Using the isolated rat kidney according to the technique described by Maack (Maack P., Kidney Int., 30:142, 1986) and Shure (Shure K. H., Delugers Arch., 35:4, 1975) and perfusing it with a solution containing cyclosporin-A, it is possible to detect the toxic reactions this substance induces at the renal level relating both to the renal cytomorphology, particularly at the tubular level, and to arteriolar and […] capillary vasoconstriction and the release of enzymes such as alanine aminopeptidase (AAP) and N-acetylglucosaminidase (NAG), the release of which is regarded as a sign of cell damage, as is the release of vasoactive substances such as histamine and endothelin-1.
as §1, §2
(§5) A […] method was used to measure both AAP and NAG on the renal venous flow. Histamine and endothelin-1 were measured with a colorimetric method or with RIA.

perfused rat kidneys = assay: Renal hypertension induced by cyclosporin-A or tacrolimus in perfused rat kidneys; details: treatment 5 mg/L each; for inhibition at 5 µg/mL: Rattus norvegicus
Text: as §4, §1, §2
Arterial pressure on the perfused kidney was measured by means of a manometer connected up to the renal artery.

[7] = system: isolated, perfused rat kidneys; assay: Histamine and endothelin-1 release induced by cyclosporin-A or tacrolimus in isolated, perfused rat kidneys; details: for % inhibition of release, endothelin-1 / % inhibition of release, histamine: treatment 5 mg/L each, after 1 min perfusion
Text: as §4, §1, §2, §5

[8] = system: isolated and perfused rat kidney; assay: Tests of cyclosporin-A toxicity in isolated and perfused rat kidney, overall assessment; details: in words
Text: as §4, §1, §2

Sprague Dawley rats [9] = details: rat, in vivo, 500 mg/kg
[10] = induced by cyclosporin-A 2 mg/L

Compound | MDA + 4-HDA [1] | ATP [2] | Morphometric indices, tubular ID/ED [3] | Morphometric indices, glomerular CD/BD [3] | Alanine aminotranferase activity (ALT) [4] | Triglycerides [4] | mortality or other sign of toxic effects (Sprague Dawley rats [5]; intraperitoneal, 0.5 g/kg each) | mortality or other sign of toxic effects (Sprague Dawley rats [5]; oral, 1 g/kg each) | % inhibition of release, AAP [6, 10] | % inhibition of release, NAG [6, 10] | % inhibition of release, AAP ([6]; induced by tacrolimus 400 μg/L) | % inhibition of release, NAG ([6]; induced by tacrolimus 400 μg/L) | % inhibition of release, endothelin-1 [7, 10] | % inhibition of release, histamine [7, 10] | % inhibition of release, endothelin-1 ([7]; induced by tacrolimus 400 μg/L) | % inhibition of release, histamine ([7]; induced by tacrolimus 400 μg/L) | protection of the kidney against morphological/vascular and cellular biochemical damage induced by cyclosporin-A or tacrolimus [8] | further results
cyclosporin-A [reference compound] | 6.5 ± 0.52 nmol/mg protein | 4.51 ± 0.41 nM/g tissue | 0.75 ± 0.08 | 0.78 ± 0.02 | – | – | – | – | – | – | – | – | – | – | – | – | – | –
ClC(Cl)(Cl)Cl [CCl4, carbon tetrachloride, reference compound] | – | – | – | – | 105.4 ± 3.8 U/L | 26.5 ± 0.11 mg/g | – | – | – | – | – | – | – | – | – | – | – | –
CCC(=O)O[C@H](CC(=O)[O-])C[N+](C)(C)C [Propionyl L-carnitine, propionyl L-carnitine] | 4.2 ± 0.39 nmol/mg protein | 6.05 ± 0.61 nM/g tissue | 0.40 ± 0.06 | 0.86 ± 0.7 | 75.8 ± 5.5 U/L | 18.8 ± 1.8 mg/g | without any mortality being observed | without any mortality being observed | 32.8 ± 3.1% | 30.5 ± 2.6% | 35.1 ± 2.9% | 30.8 ± 2.5% | 41.2 ± 3.8% | 39.5 ± 4.1% | 34.7 ± 2.7% | 41.5 ± 3.9% | effective in protecting the kidney | tolerability of prolonged oral administration (Sprague Dawley rats [5]; oral 500 mg/kg each for 20 days consecutively, weight gain and blood chemistry without toxic abnormalities): well tolerated; % inhibition of hypertensive effect after 5 min (perfused rat kidneys; hypertension induced by cyclosporin-A 2 mg/L, 5 min): 18.2 ± 1.5%; % inhibition of hypertensive effect after 20 min (perfused rat kidneys; hypertension induced by cyclosporin-A 2 mg/L, 20 min): 28.4 ± 2.1%; % inhibition of hypertensive effect after 5 min (perfused rat kidneys; hypertension induced by tacrolimus 400 μg/L, 5 min): 22.5 ± 2.3%; % inhibition of hypertensive effect after 20 min (perfused rat kidneys; hypertension induced by tacrolimus 400 μg/L, 20 min): 30.7 ± 2.9%
NCC(=O)O [Glycine, glycine] | 4.8 ± 0.41 nmol/mg protein | 4.56 ± 0.49 nM/g tissue | 0.66 ± 0.5 | 0.80 ± 0.5 | 90.2 ± 8.6 U/L | 22.2 ± 2.1 mg/g | without any mortality being observed | without any mortality being observed | 14.2 ± 0.9% | 16.5 ± 0.6% | 18.5 ± 1.1% | 17.2 ± 0.9% | 8.8 ± 0.9% | 10.4 ± 1.1% | 6.5 ± 0.7% | 7.5 ± 0.8% | much less effective | tolerability of prolonged oral administration (Sprague Dawley rats [9]): well tolerated; effect on the lipid peroxidation activity induced by cyclosporin-A ([1]; in words): detectable protective effect; inhibition at 5 µg/mL (perfused rat kidneys; 5 min, hypertension induced by cyclosporin-A 2 mg/L, 5 min, read-out: % inhibition of hypertensive effect after 5 min): 6.3 ± 0.9%; inhibition at 5 µg/mL (perfused rat kidneys; 5 min, hypertension induced by tacrolimus 400 μg/L, 5 min, read-out: % inhibition of hypertensive effect after 5 min): 4.8 ± 7.1%; inhibition at 5 µg/mL (perfused rat kidneys; 20 min, hypertension induced by cyclosporin-A 2 mg/L, 20 min, read-out: % inhibition of hypertensive effect after 20 min): 6.8 ± 0.3%; inhibition at 5 µg/mL (perfused rat kidneys; 20 min, hypertension induced by tacrolimus 400 μg/L, 20 min, read-out: % inhibition of hypertensive effect after 20 min): 7.4 ± 0.9%; action on the reduction in intracellular ATP ([2]; cyclosporin A, in words): not significantly detectable; action on the release of vasoactive substances such as histamine and endothelin ([7]; cyclosporin A, in words): not significantly detectable; action on the morphological damage induced by cyclosporin A ([3]; in words): not significantly detectable
